Test results taken from BindingDB's records for doi:10.1021/jm00041a023 (Merck Research Laboratories, 1994).

Target: T1, Gag-Pol polyprotein [588-1027]/[588-1147] (Human immunodeficiency virus 1, UniProt P04585)
T1 construct: 588-1027; 588-1147
Test: HIV-1 RT Assay
Conditions: pH 8.2
Source text: The IC50 of reverse transcriptase is the concentration that inhibits 50% of recombinant HIV-1 RT RNA-directed DNA polymerase activity in vitro.

O=C1Nc2ccc(Cl)cc2C(C#Cc2cc([N+](=O)[O-])ccn2)(C2CC2)N1 (stereo unspecified) [6-chloro-4-cyclopropyl-4-[2-(4-nitropyridin-2-yl)ethynyl]-1,2,3,4-tetrahydroquinazolin-2-one]
IC50: > 10 µM
